Measurements: patent publication EP0293220B1, “Pharmacologically active 2-and 3-substituted (1', 5'-diaryl-3-pyrazolyl)-N-Hydroxypropanamides and method for synthesizing” (ORTHO PHARMACEUTICAL CORPORATION, priority 1987, dated 1988)
One block for each molecule: values may come before it.

Assays:
Polyarthritis = Polyarthritis induced by Mycobacterium butyricum in rats: inhibition of paw volume increase after oral dosing; format: in vivo, Lewis strain laboratory rats; conditions: percent inhibition of paw volume increase
Procedure: Polyarthritis was induced in Lewis strain laboratory rats (weight = about 200 grams) by injection of a suspension of Mycobacterium butyricum in mineral oil into the subplantar tissue of the mammal's hind paws. On day 10 after the injection, the rats were assigned to groups, and paw volumes and body weights were recorded. Paw volumes of the contralateral, uninjected hind paw were determined by mercury plethylsmography. Per oral (p.o.) dosing began and continued for five consecutive days thereafter. On day 14 after the initial injection, approximately four hours after the final dose was administered, paw volumes and body weights were recorded and quantitated.
Anti-inflammatory activity of the N-hydroxypropanamide pyrazole compounds is expressed as the percent inhibition of paw volume increase.

lipoxygenase = target: T1, lipoxygenase (Rattus norvegicus, UniProt P12527); experiment: Ex vivo arachidonic acid metabolism of rat pleural exudate cells after oral dosing, lipoxygenase products (5-HETE, leukotriene B₄); format: in vivo, Sprague-Dawley rats; conditions: for inhibition at 30 mg/kg: 30 mpk; for ED50: oral dose, ex vivo rat pleural exudate cells, read-out: IC₅₀, p.o. Lipoxygenase
T1 construct: endogenous in cells; host or cells: pleural exudate cells of carrageenan-treated Sprague-Dawley rats
T1 sequence (P12527 1-673): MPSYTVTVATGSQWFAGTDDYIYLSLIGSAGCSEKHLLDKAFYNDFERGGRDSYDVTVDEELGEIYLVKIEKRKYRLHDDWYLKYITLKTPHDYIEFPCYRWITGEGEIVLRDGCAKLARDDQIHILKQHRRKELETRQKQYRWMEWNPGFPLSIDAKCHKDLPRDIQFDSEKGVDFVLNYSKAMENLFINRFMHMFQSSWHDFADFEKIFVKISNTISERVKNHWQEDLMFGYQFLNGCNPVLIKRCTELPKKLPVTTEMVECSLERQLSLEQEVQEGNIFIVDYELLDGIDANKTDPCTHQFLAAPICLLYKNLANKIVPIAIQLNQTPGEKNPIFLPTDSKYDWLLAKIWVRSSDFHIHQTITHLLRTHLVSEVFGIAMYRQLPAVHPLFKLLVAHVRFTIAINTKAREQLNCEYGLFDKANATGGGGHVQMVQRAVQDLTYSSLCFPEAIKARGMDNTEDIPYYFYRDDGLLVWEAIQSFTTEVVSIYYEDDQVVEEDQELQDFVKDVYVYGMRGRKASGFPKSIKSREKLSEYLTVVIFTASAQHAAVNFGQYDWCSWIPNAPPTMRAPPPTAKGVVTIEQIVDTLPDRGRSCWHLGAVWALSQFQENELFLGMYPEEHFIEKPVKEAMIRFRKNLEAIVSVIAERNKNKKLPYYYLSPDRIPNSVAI
Procedure: This assay determines the ability of orally administered compounds to inhibit arachidonic acid metabolism with rat pleural exudate cells, via the lipoxygenase and/or cyclooxygenase enzymes. Sprague-Dawley rats (250 - 275 gm) are fasted overnight. The next morning, an acute inflammatory response is induced by the intra-thoracic injection of 1 ml of 0.25% carrageenan. Three hours later the rats are dosed orally with the test compounds at a screening dose of 16.5-30 mpk. Thirty minutes to one hour later the rats are sacrificed and pleural fluid harvested. The exudate fluids are diluted 1:5 using Hanks BSS and stimulated using 10 µg/ml calcium ionophore A-23187. The reaction is stopped after 15 minutes by the addition of 25 µl of 1N HCl, and the samples are centrifuged at 1000 g to sediment the cells. The supernate is extracted and applied to a C-18 HPLC column. The arachidonic acid metabolites 12-HHT (cyclooxygenase), 5-HETE, and leukotriene B₄ (lipoxygenase) are eluted using an acetonitrile methanol gradient and detected by UV absorption at 235 and 270 nm. The percent inhibition of the arachidonic acid metabolites is indicative of the anti-inflammatory activity of the tested compound and the results of this method for several compounds of the invention are listed in Table 13. The values shown are the percent inhibition at the dose indicated except for the those cases in which the IC₅₀ value is given.

[1] = rat, po, exudate cells stimulated with 10 µg/ml calcium ionophore A-23187, read-out: %INH., p.o. Lipoxygenase (mpk)

SMILES: COc1ccc(-n2nc(C(O)c3ccc(C)cc3)cc2-c2ccc(C)cc2)cc1 (stereo not drawn) [Compound 92]
%INH., p.o. (mpk) (Polyarthritis; 10 mpk): 27% @ 10

SMILES: COc1ccc(-n2nc(C(O)c3ccc4ccccc4c3)cc2-c2ccc(C)cc2)cc1 (stereo not drawn) [Compound 94]
%INH., p.o. (mpk) (Polyarthritis; 10 mpk): 29% @ 10

SMILES: COc1ccc(-c2cc(C(O)c3ccccc3)nn2-c2ccc(OC)cc2)cc1 (stereo not drawn) [Compound 105, [1,5-Bis(4-methoxyphenyl)-3-pyrazolyl]-1-phenylmethanol]
%INH., p.o. (mpk) (Polyarthritis; 15 mpk): 49% @ 15

SMILES: COc1ccc(-n2nc(C(=O)c3ccc(Cl)cc3)cc2-c2ccc(C)cc2)cc1 [Compound 108]
%INH., p.o. (mpk) (Polyarthritis; 10 mpk): 25% @ 10

SMILES: COc1ccc(-n2nc(/C(=C/C(=O)O)c3ccccc3)cc2-c2ccc(C)cc2)cc1 [Compound 155, (E)-3-[1-(4-Methoxyphenyl)-5-(4-methylphenyl)-3-pyrazolyl]-3-phenyl-2-propenoic acid]
%INH., p.o. (mpk) (Polyarthritis; 10 mpk): 62% @ 10

SMILES: COc1ccc(-n2nc(/C(=C/C(=O)O)c3ccc(Cl)cc3)cc2-c2ccc(C)cc2)cc1 [Compound 157, (E)-3-(4-Chlorophenyl)-3-[1-(4-methoxyphenyl)-5-(4-methylphenyl)-3-pyrazolyl]propenoic acid]
%INH., p.o. (mpk) (Polyarthritis; 10 mpk): 24% @ 10

SMILES: COc1ccc(-n2nc(/C(=C\C(=O)O)c3ccc(Cl)cc3)cc2-c2ccc(C)cc2)cc1 [Compound 158, (Z)-3-(4-Chlorophenyl)-3-[1-(4-methoxyphenyl)-5-(4-methylphenyl)-3-pyrazolyl]propenoic acid]
inhibition at 17.5 mg/kg (lipoxygenase; rat, po, 17.5 mpk, exudate cells stimulated with 10 µg/ml calcium ionophore A-23187, read-out: %INH., p.o. Lipoxygenase (mpk)): 53%

SMILES: COc1ccc(-n2nc(/C(=C/C(=O)N(C)O)c3ccc(F)cc3)cc2-c2ccc(C)cc2)cc1 [Compound 163, (E)-3-(4-Fluorophenyl)-N-hydroxy-3-[1-(4-methoxyphenyl)-5-(4-methylphenyl)-3-pyrazolyl]-N-methylpropenamide]
ED50 (lipoxygenase): 10 mg/kg

SMILES: COc1ccc(-n2nc(/C(=C/C(=O)N(C)O)c3ccc(Cl)cc3)cc2-c2ccc(C)cc2)cc1 [Compound 164]
%INH., p.o. (mpk) (Polyarthritis; 10 mpk): 22% @ 10

SMILES: COc1ccc(-n2nc(/C(=C\C(=O)N(C)O)c3ccc(Cl)cc3)cc2-c2ccc(C)cc2)cc1 [Compound 165]
inhibition at 30 mg/kg (lipoxygenase; [1]): 12%

Continued, values first:

inhibition at 30 mg/kg (lipoxygenase; [1]): 62%
SMILES: COc1ccc(-n2nc(C(=O)c3ccc(C)cc3)cc2-c2ccc(C)cc2)cc1 [Compound 109, 1-(4-Methoxyphenyl)-3-(4-methylbenzoyl)-5-(4-methylphenyl)pyrazole]

ED50 (lipoxygenase): 9 mg/kg
SMILES: CCOC(=O)/C=C(/c1ccc(C)cc1)c1cc(-c2ccc(C)cc2)n(-c2ccc(OC)cc2)n1 [Compound 125, (Z)-Ethyl 3-[1(4-methoxyphenyl)-5-(4-methylphenyl)-3-pyrazolyl]-3-(4-methylphenyl)propenoate]

inhibition at 16.5 mg/kg (lipoxygenase; rat, po, 16.5 mpk, exudate cells stimulated with 10 µg/ml calcium ionophore A-23187, read-out: %INH., p.o. Lipoxygenase (mpk)): 34%
SMILES: CCOC(=O)/C=C(/c1ccc(-c2ccccc2)cc1)c1cc(-c2ccc(C)cc2)n(-c2ccc(OC)cc2)n1 [Compound 132]

inhibition at 30 mg/kg (lipoxygenase; [1]): 42%
SMILES: CCOC(=O)CC(c1cc(-c2ccc(C)cc2)n(-c2ccc(OC)cc2)n1)c1cccc2ccccc12 (stereo not drawn) [Compound 150]

inhibition at 30 mg/kg (lipoxygenase; [1]): 3%
SMILES: COc1ccc(-n2nc(/C(=C/C(=O)N(C)O)c3ccc(-c4ccccc4)cc3)cc2-c2ccc(C)cc2)cc1 [Compound 168]
